From ChEMBL document CHEMBL1131958, “Synthesis of bisquinolines and their in vitro ability to produce methemoglobin in canine hemolysate” (1999)
Calls of active or inactive are those of the source. No cut-off for these calls is given here.

Experiments:
Canis familiaris [1] = species: Canis familiaris; test: In vitro effect on methemoglobin formation in blood of dog at 5 mM concentration; assay type: functional
Canis familiaris [2] = species: Canis familiaris; test: In vitro effect on methemoglobin formation in blood of dog at 1 mM concentration; Nil; assay type: functional; conditions: Canis lupus familiaris
Canis familiaris [3] = species: Canis familiaris; test: In vitro effect on methemoglobin formation in blood of dog at 5 mM concentration; Nil; assay type: functional; conditions: Canis lupus familiaris
Canis familiaris [4] = species: Canis familiaris; test: In vitro effect on methemoglobin formation in blood of dog at 1 mM concentration; assay type: functional, Canis lupus familiaris

`Clc1ccc2c(NCCN3CCN(c4ccnc5cc(Cl)ccc45)CC3)ccnc2c1` was tested, and the Methemoglobin (Canis familiaris [1]; Canis lupus familiaris) was “Nil” and the Methemoglobin (Canis familiaris [2]) was “Nil”.

`O=C(O)C(CCCCNc1ccnc2cc(Cl)ccc12)Nc1ccnc2cc(Cl)ccc12` (stereo not drawn) was tested, and the Methemoglobin (Canis familiaris [3]) was “Nil” and the Methemoglobin (Canis familiaris [2]) was “Nil”.

`COc1cc(NC(C)CCCN)c2ncccc2c1` (stereo not drawn) [PRIMAQUINE] gave a Methemoglobin (Canis familiaris [1]) of 87.6% and a Methemoglobin (Canis familiaris [4]) of 11.52%.

In the case of `Clc1ccc2c(NCCNCCCCNCCNc3ccnc4cc(Cl)ccc34)ccnc2c1`, the Methemoglobin (Canis familiaris [1]) is reported as 3% and the Methemoglobin (Canis familiaris [2]) is reported as “Nil”.

Molecule `Clc1ccc2c(NCCCCNc3ccnc4cc(Cl)ccc34)ccnc2c1` has a Methemoglobin (Canis familiaris [1]) of 90.8% and a Methemoglobin (Canis familiaris [4]) of 29.5%.

In the case of `O=[N+]([O-])c1cc2c(NCCCCNc3ccnc4cc(Cl)c([N+](=O)[O-])cc34)ccnc2cc1Cl`, the Methemoglobin (Canis familiaris [1]) is reported as 6.42% and the Methemoglobin (Canis familiaris [2]) is reported as “Nil”.

In the case of `O=C(O)C(CCCNc1ccnc2cc(Cl)ccc12)Nc1ccnc2cc(Cl)ccc12` (stereo not drawn), the Methemoglobin (Canis familiaris [1]) is reported as 6.89% and the Methemoglobin (Canis familiaris [2]) is reported as “Nil”.

For `CCN(CC)CCCC(C)Nc1ccnc2cc(Cl)ccc12` (stereo not drawn), the Methemoglobin (Canis familiaris [3]) was “inactive” and the Methemoglobin (Canis familiaris [2]) was “inactive”.

`N/C(=N\CCCC(Nc1ccnc2cc(Cl)ccc12)C(=O)O)Nc1ccnc2cc(Cl)ccc12` (stereo not drawn) was tested, and the Methemoglobin (Canis familiaris [1]) was 1.5% and the Methemoglobin (Canis familiaris [2]) was “Nil”.
